Test results reported in PMC4923153, “Protection of Primary Dopaminergic Midbrain Neurons by GPR139 Agonists Supports Different Mechanisms of MPP^+ and Rotenone Toxicity” (Frontiers in Cellular Neuroscience, 2016).

What was measured:
Format in all cases: cell-based, mice
[1] = test system: primary DA midbrain neurons; assay: Protection of primary DA midbrain neurons against MPP+ toxicity (TH-positive neuron count); conditions: 1 μM MPP+ 24 h
Experimental: Experiments were conducted in accordance with the ethical guidelines of H. Lundbeck A/S and the Danish legislation of animal use for scientific procedures. Cell culture was basically performed as described (Nagel et al., [2008]), with few modifications. Briefly, the mesencephalon floor was dissected from embryonic day (E) 13 mice, tissue pieces collected in HBBS, transferred to 0.1% trypsin, 0.05% DNAse (Sigma-Aldrich DN25–1G) and incubated at 37°C in a humidified atmosphere with 5% CO2 for 20 min; washed in DNAse, homogenized and centrifuged at 200× g, resuspended in medium (DMEM (Gibco 41965–039), 10% FCS, 1% P/S (Gibco, 15140–122), l.5% HEPES (Gibco, 15630–056), 1% Sodium Pyruvate (Gibco, 11360–039)) and plated on poly-L-lysine coated 96-well dishes. The medium was switched to neurobasal medium after 90 min (neurobasal (Gibco 21103–049) with 1% P/S, 2% B27 (Gibco, 17504–044), 1.25% 0.5 mM L-glutamine (Gibco, 25030–024)). After 6 days in vitro (DIV), cultures were treated with 1 μM of three different GPR139 agonists and in some experiments, concomitantly, with 10 μM of the antagonist for1 h, before exposing them to 0–1 μM MPP^+, 0–50 μM 6-OHDA or 0–100 nM rotenone for 24 h. For the MPP^+ treated cultures, it was also tested whether the effect of the GPR139 agonists could be blocked by concomitantly applying 10 μM GPR139 antagonist (IC50 3 μM). Subsequently, cells were fixed in 4% PFA/PBS for 10 min, washed with PBS, incubated in 0.5% BSA/0.1% Triton-X/5% porcine serum for 20 min, and incubated for 24 h in rabbit anti-tyrosine hydroxylase antibodies (1:1000 in PBS, Millipore AB152); washed 2 × 5 min in PBS. Secondary antibodies (Alexa 488 rabbit) were applied 1:200 in PBS with 0.2 μg/ml Hoechst dye for 1 h and washed 2 × 5 min in PBS. One drop of DAKO fluorescent mounting medium were applied into each well. Plates were stored at 4°C until tyrosine-hydroxylase-positive (TH-positive) neurons were counted using a Thermo Scientific Cellomics® ArrayScan® VTI HCS Reader. Results were normalized against control condition and compared. Experiments were only included in the evaluation if at least 30% cell death was induced at the highest toxin concentration compared to non-treated control wells. To ensure that only healthy primary cultures were assessed, we furthermore excluded experiments with total cell counts below Mean minus standard deviation (SD) of the summarized experiments. […]
To examine whether GPR139 agonists protect against toxin-induced DA cell death, we first treated cultured DA midbrain neurons with the GPR139 agonists and MPP^+ . Subsequently, we determined survival of TH-positive neurons.
Figure 8 Three different GPR139 surrogate agonists protect primary dopaminergic (DA) midbrain neurons against 1-methyl-4-phenyl-pyridinium ionMPP^+ toxicity. […] TH-positive neurons were counted and normalized to numbers under control conditions. […] Each data point is calculated from 12 (0 μM and 1 μM MPP^+ concentrations); 4 (0.125 μM); 7 (0.25 μM); or 8 (0.5 μM) independent measurements.
Primary midbrain cultures were pretreated with the indicated amount of GPR139 agonist compound 3 and with either vehicle ( [drawing 5] ), or 1 μM MPP^+ ( [drawing 6] ); or MPP^+ with 10 μM of the antagonist compound 4 ( [drawing 7] ), or with the antagonist compound 4 alone ( [drawing 8] ). The number of TH-positive neurons was determined 24 h later and normalized to control conditions. […]

[2] = test system: primary DA midbrain neurons; assay: Protection of primary DA midbrain neurons against 6-OHDA toxicity (TH-positive neuron count); conditions: 1 μM agonist 1 h, 0-50 μM 6-OHDA 24 h
Experimental: (§1) Experiments were conducted in accordance with the ethical guidelines of H. Lundbeck A/S and the Danish legislation of animal use for scientific procedures. Cell culture was basically performed as described (Nagel et al., [2008]), with few modifications. […] Plates were stored at 4°C until tyrosine-hydroxylase-positive (TH-positive) neurons were counted using a Thermo Scientific Cellomics® ArrayScan® VTI HCS Reader. […] To ensure that only healthy primary cultures were assessed, we furthermore excluded experiments with total cell counts below Mean minus standard deviation (SD) of the summarized experiments. […]
Neuronal midbrain cultures were pretreated with 1 μM of either one of the agonists compound 1 ( [drawing 9] ), compound 2 ( [drawing 10] ), or compound 3 ( [drawing 11] ), or vehicle ( [drawing 12] ) for 1 h, followed by treatment with the indicated concentrations of 6-hydroxydopamine (6-OHDA) for 24 h. TH-positive neurons were counted and normalized to control numbers.

[3] = test system: primary DA midbrain neurons; assay: Protection of primary DA midbrain neurons against rotenone toxicity (TH-positive neuron count); conditions: 1 μM agonist 1 h, 0-100 nM rotenone 24 h, n = 4
Experimental: as §1
Mesencephalic cultures were treated with 1 μM of either one of the GPR139 agonists compound 1 ( [drawing 13] ), compound 2 ( [drawing 14] ), or compound 3 ( [drawing 15] ), or vehicle ( [drawing 16] ) for 1 h before exposing them to 0–100 nM of rotenone. […] TH-positive neurons were counted and normalized to control numbers (100%).

## CN(C)C1CCN(C(=O)CNC(=O)Cc2cccc3ccccc23)C1 (stereo not shown) [compound 2, N-[2-(3-Dimethylamino-pyrrolidin-1-yl)-2-oxo-ethyl]-2-Naphthalen-1-yl-acetamide]
[1]; 1 μM agonist 1 h, p ≤ 0.05 vs vehicle
  protection against MPP+ toxicity: significant
[1]; 1 μM compound pre-incubation 1 h, TH-positive neurons
  cells killed by 1 μM MPP+ that were rescued: 40.5%
[2]
  protection against 6-OHDA toxicity: do not protect
[3]
  protection against rotenone toxicity: do not protect
